This is an account of results in patent US20180319865A1, “Identification of Novel Small Molecule Beta2 Integrin Agonists” (Rush University Medical Center, priority 2016, published 2018).

Test [1] concerns the target T1, integrin CD11c/CD18 (Homo sapiens, UniProt P20702).
T1 construct: expressed in transfected cells; host or cells: K562 (ATCC)
The experiment in a line: HTS cell adhesion assay, K562 CD11c/CD18 cells on immobilized fibrinogen. It counts as cell-based. On the procedure: K562 cells stably expressing CD11c/CD18 (K562 CD11c/CD18) were generated similarly. Mutant CD11bE320A has been described previously. K562 cells stably transfected with mutant integrin CD11bE320A/CD18 (K562 E320A) were generated according to literature protocols. All cell lines were maintained in Iscove's Modified Dulbecco's Medium (IMDM) supplemented with 10% heat-inactivated fetal bovine serum, 50 IU/mL penicillin and streptomycin and 0.5 mg/mL G418.
Cell adhesion assays with immobilized ligands were performed using the general protocol previously described and as illustrated in FIG. 1 [33]. Assays with all different K562 cell lines (K562, K562 CD11b/CD18, K562 CD11c/CD18 and K562 E320A) were performed in an identical fashion. Briefly, 384-well microplates (Corning 3700) were coated with 15 μg/mL fibrinogen (Fg) ligand in PBS^++ overnight at 4° C. At the same time, anti-CD18 (IB4) mAb was also coated. Subsequently, the coated wells were washed with 1% nonfat milk in TBS at room temperature for 1 hour. Next, the wells were washed 3 times with TBS, and the coated microplates were used in the HTS assays.
K562 CD11b/CD18, K562 CD11bE320A/CD18 and K562 CD11c/CD18 cells were washed with TBS, and cells were transferred to the Fg-coated wells of microplates in the assay buffer (Ca^2+ and Mg^2+ for physiological condition, Mn^2+ as the Positive control). A 1 μL aliquot of the compounds were transferred to each washed well with multichannel pipet from the 384-well plates.
The assay plates were incubated at 37° C. in the presence of small-molecule compounds for 30 min. To dislodge the non-adherent cell, the assay plates were gently inverted and kept in inverted position for 20 min at room temperature.
The cells were fixed with 37% formaldehyde in a small volume and the plates were kept inverted for 1 h. Upon the fixation, the solutions in the well were discarded. Next, the cells were fluorescently labeled with DAPI (0.5 μM final in TBS with 0.1% Triton X-100) and the quantitated with “Opera High Content Screening System” (Perkin Elmer).
Cell-adhesion under positive and negative control conditions was used to define the activity scale; signal corresponding to the number of non-small molecule treated cells adherent in activating buffer condition (in the presence of Mn^2+ ions as agonist, PC) was considered maximum (100% binding) and the signal corresponding to the number of non-small molecule treated cells adherent in basal buffer condition (in the presence of 1 mM each of Ca^2+ and Mg^2+, NC) was considered minimum (0% binding). […]
The compounds were diluted in DMSO by the final concentration 10 μM, 5 μM, 2.5 μM, 1.25 μM and 0.625 μM and stocked as sealed in 384-well plates at −80° C.

Test [2] addresses T2, mutant integrin CD11bE320A/CD18 (Homo sapiens, UniProt P11215, E336A).
T2 construct: expressed in transfected cells; host or cells: K562 (ATCC)
The experiment in a line: HTS cell adhesion assay, K562 E320A cells on immobilized fibrinogen. It counts as cell-based. To be noted: five point dose-response. In outline: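 K562 cells expressing the indicated CD11b/CD18 integrin were added to wells coated with 15 μg/mL fibrinogen and incubated with compound for 30 min at 37 °C in Ca2+/Mg2+ buffer. Non-adherent cells were removed by plate inversion. Adherent cells were fixed, stained with DAPI and counted by high-content imaging, scaled from 0% (1 mM Ca2+/Mg2+) to 100% (Mn2+ activation).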

The mark [3] stands for this setting: Table 3, adhesion to fibrinogen.

T1 sequence (P20702 with tags, fused parts or gaps): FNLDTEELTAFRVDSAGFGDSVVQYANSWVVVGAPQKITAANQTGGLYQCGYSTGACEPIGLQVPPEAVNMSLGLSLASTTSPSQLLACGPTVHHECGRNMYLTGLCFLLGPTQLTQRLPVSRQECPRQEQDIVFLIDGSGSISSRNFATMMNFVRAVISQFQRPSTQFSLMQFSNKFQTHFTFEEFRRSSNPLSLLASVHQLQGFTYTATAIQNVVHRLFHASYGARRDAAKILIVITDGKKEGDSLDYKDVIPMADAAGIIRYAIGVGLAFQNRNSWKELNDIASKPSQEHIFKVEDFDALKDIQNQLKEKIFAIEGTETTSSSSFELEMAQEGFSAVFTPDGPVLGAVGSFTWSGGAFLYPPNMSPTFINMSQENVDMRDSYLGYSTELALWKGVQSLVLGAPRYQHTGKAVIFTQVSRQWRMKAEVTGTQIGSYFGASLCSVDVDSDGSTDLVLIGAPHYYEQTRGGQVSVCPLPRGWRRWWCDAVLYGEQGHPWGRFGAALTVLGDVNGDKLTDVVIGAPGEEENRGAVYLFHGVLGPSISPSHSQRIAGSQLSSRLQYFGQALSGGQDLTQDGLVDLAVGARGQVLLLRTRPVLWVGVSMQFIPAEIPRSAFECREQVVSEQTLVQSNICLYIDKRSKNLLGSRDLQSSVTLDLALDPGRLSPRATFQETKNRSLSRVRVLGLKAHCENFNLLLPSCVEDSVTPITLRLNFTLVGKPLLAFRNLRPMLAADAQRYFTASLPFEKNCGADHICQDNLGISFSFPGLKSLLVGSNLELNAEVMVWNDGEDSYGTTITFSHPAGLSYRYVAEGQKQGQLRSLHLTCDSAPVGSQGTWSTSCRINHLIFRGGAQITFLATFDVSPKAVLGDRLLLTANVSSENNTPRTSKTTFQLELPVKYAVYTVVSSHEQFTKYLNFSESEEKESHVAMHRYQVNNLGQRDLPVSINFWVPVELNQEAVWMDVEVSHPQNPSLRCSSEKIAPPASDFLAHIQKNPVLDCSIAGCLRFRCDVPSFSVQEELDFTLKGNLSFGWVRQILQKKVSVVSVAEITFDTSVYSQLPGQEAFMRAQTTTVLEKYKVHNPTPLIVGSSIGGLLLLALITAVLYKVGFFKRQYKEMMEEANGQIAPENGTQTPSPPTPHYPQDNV
T1 sequence (P05107 23-769 partner): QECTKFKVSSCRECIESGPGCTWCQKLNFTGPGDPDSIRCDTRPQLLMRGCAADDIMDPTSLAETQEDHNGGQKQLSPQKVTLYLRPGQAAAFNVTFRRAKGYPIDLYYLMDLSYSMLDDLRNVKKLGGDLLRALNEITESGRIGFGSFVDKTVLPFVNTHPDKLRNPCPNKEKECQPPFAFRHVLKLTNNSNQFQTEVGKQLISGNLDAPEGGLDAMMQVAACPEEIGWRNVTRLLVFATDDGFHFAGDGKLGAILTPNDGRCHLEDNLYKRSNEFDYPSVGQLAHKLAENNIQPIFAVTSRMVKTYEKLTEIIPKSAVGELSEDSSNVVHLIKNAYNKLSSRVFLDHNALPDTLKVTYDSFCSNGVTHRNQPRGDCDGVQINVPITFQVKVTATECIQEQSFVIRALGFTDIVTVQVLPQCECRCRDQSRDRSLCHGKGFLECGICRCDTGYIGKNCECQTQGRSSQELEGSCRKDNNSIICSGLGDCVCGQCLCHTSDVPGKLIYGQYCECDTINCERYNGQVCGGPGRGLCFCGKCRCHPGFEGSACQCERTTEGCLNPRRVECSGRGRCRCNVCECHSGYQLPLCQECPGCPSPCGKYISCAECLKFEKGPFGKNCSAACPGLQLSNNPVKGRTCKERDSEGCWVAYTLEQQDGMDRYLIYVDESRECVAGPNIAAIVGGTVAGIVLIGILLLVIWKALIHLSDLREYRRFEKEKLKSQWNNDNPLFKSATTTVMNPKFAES
T2 sequence (P11215 17-1152 E336A): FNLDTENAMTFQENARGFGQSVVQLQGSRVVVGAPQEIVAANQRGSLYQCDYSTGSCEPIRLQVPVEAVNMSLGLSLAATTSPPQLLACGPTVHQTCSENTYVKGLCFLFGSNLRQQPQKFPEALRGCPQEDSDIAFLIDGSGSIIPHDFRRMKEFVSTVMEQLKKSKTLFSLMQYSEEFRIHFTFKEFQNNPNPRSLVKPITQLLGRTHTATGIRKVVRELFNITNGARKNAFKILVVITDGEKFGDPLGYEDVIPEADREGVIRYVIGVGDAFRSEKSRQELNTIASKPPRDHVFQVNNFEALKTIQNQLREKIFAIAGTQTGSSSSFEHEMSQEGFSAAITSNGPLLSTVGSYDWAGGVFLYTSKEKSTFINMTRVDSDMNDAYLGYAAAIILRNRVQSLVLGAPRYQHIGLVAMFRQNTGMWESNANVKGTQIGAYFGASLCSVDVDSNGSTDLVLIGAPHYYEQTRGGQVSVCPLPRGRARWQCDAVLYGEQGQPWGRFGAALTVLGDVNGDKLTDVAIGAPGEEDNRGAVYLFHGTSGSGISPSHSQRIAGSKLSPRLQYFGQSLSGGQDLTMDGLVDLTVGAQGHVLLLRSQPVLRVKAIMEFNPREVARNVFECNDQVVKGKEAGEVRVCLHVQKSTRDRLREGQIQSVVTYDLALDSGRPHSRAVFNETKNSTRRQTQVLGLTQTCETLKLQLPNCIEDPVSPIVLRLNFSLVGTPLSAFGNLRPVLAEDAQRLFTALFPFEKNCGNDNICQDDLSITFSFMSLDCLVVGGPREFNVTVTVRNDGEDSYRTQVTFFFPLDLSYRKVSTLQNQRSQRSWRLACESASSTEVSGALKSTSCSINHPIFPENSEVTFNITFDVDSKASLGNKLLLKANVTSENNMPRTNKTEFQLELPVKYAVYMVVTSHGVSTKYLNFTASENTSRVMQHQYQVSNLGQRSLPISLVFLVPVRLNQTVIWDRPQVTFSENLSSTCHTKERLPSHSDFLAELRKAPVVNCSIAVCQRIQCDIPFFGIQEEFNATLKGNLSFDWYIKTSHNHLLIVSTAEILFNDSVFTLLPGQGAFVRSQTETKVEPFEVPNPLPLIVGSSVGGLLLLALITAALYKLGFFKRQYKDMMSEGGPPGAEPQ
T2 sequence (P05107 23-769 partner): as the sequence (P05107 23-769 partner) above

For orientation: EC50 means the concentration needed to bring the measured effect to its halfway point. The low end stands for greater potency, the high end for weaker potency. As for `Cc1ccc(-n2c(N)c(C(=O)Nc3c(C)n(C)n(-c4ccccc4)c3=O)c3nc4ccccc4nc32)cc1` [Compound 1949560], the EC50 in test [1] stood at 5.53 µM; in test [2] (setting [3]), 5.46 µM.
In the case of `CCC(=O)Nc1c(C#N)c2nc3ccccc3nc2n1C1CCCCC1` [Compound 658936], in test [1] (Table 3, K562 CD11c/CD18 cells, adhesion to fibrinogen, dose-response), the “EC50 CD11c/CD18” value is listed as 1.669 (Reverse). The same molecule yielded an EC50 in test [2] (setting [3]) of 0.209 µM.
In the case of `Cc1ccc(C)c(NC(=S)NC(NC(=O)Cc2cccc3ccccc23)C(Cl)(Cl)Cl)c1` (stereo not shown) [Compound 2831455], the results for the EC50 in test [1] and in test [2] (setting [3]) were 6.87 µM and 5.08 µM, respectively.
As for `O=C1Nc2ccccc2SC(c2ccccc2)C1O` (stereo not shown) [Compound 3242458], the EC50 in test [1] stood at 1.89 µM; in test [2] (setting [3]), 2.83 µM.
In the case of `O=C(Nc1nccs1)c1cccc(N2C(=O)c3cccc4c([N+](=O)[O-])ccc(c34)C2=O)c1` [Compound 2254616], the results for the EC50 in test [1] and in test [2] (setting [3]) were 1.87 µM and 4.43 µM, respectively.
In the case of `Cc1ccc(CCN2CC(C(=O)NCCCN3CCCCCC3)CC2=O)cc1` (stereo not shown) [Compound 3237466], the results for the EC50 in test [1] and in test [2] (setting [3]) were 1.35 µM and 3.69 µM, respectively.
Take `O=c1c(-c2nc3ccccc3o2)c2oc3ccccc3n2c2ccccc12` [Compound 2321209]: the EC50 in test [1] is 2.63 µM; in test [2] (setting [3]) it was 5.3 µM.
As to `CC(C)CNC(=O)c1c(N)n(/N=C/c2ccccn2)c2nc3ccccc3nc12` [Compound 9568664], the EC50 was 3.73 µM in test [1] and 6.19 µM in test [2] (setting [3]).
Turning to `Cc1ccc(-c2nn3c(C)nnc3s2)cc1NC(=O)c1ccc(-c2cccc(Cl)c2)o1` [Compound 666410], the EC50 in test [1] is 2.45 µM; in test [2] (Table 4, adhesion to fibrinogen) it was 6.22 µM.
As for `Cc1ccc2nsnc2c1NC(=O)c1ccc(-c2cc(Cl)ccc2Cl)o1` [Compound 1334850], the EC50 in test [1] turned out to be 1.38 µM; in test [2] (setting [3]) it was 2.69 µM.
With `CC1CCN(S(=O)(=O)c2ccc(NC(=O)Cn3nnc(-c4ccccc4)n3)cc2)CC1` [Compound 652267], the values for the EC50 in test [1] and in test [2] (setting [3]) were 5.01 µM and 6 µM, respectively.
As to `COc1ccc2nc(SCC(=O)Nc3ccc4sc(C)nc4c3)c(C#N)cc2c1` [Compound 1164441], the results for the EC50 in test [1] and in test [2] (setting [3]) were 2.77 µM and 4 µM, respectively.
In the same order, the values of `Cc1ccsc1/C=C/C1=Cc2c(sc(NC(=O)CSc3nnc(N)[nH]3)c2C#N)C(C)(C)C1` [Compound 2083967] are 2.7 µM and 3.33 µM.
Consider `CCOc1ccc(NC(=O)c2ccc(CNc3c(NC4CCCCC4)c(=O)c3=O)cc2)cc1` [Compound 11957216], for which the EC50 in test [1] came to 4.31 µM; in test [2] (setting [3]), 6.76 µM.
In the same order, the values of `CCOc1ccc(/C=c2\sc3nc(-c4ccco4)nn3c2=O)cc1OCC` [Compound 2144321] are 5.07 µM and 6.49 µM.
With `COC(=O)c1[nH]c2ccccc2c1NC(=O)CN1CCCc2ccccc21` [Compound 658682], the EC50 in test [1] stood at 0.621 µM; in test [2] (setting [3]), 1.6 µM.
With `CCOC(=O)c1c(NC(=O)c2cc(-c3ccc(Cl)s3)nc3ccccc23)sc(C(N)=O)c1C` [Compound 2163411], the EC50 came out at 1.77 µM in test [1] and 6.56 µM in test [2] (setting [3]).
In the same order, the values of `CC(=O)Nc1ccc(-c2nnc(SCC(=O)n3c4c(c5ccccc53)CCCC4)n2C)cc1` [Compound 1310712] are 1.29 µM and 2.39 µM.
Take `CCCCn1c(SCC(=O)c2ccc(OC)cc2OC)nc2cc(S(N)(=O)=O)ccc21` [Compound 2997788]: the concentration for a half-maximal effect (EC50) in test [1] was determined as 4.72 µM; in test [2] (setting [3]), 5.27 µM.
With `CCCCCCCC(=O)Nc1ccc(C(=O)N/N=C/c2cccc([N+](=O)[O-])c2)cc1` [Compound 9774264], the EC50 in test [1] turned out to be 1.03 µM; in test [2] (setting [3]) it was 4.16 µM.
For `COc1ccc(-c2nnn(CC(=O)Nc3sc4c(c3C#N)CCCC4)n2)cc1` [Compound 652695], the EC50 in test [1] is 4.61 µM; in test [2] (setting [3]), 4.86 µM.
`COc1cccc(OCc2cc(/C=N/NC(=O)c3nc(Cl)c(Cl)c(N)c3Cl)ccc2OC)c1` [Compound 6881723] had an EC50 in test [2] (setting [3]) of 7.33 µM. This counts as single-digit micromolar.
The molecule `CCC(C)N1C(=O)/C(=C/c2ccc3c(c2)CCN3CCCCl)C(=O)NC1=S` (stereo not shown) [Compound 6513263] came in with an EC50 in test [2] (setting [3]) of 13.9 µM.
`COc1ccc(C(=O)Nc2ccc(N3CCN(c4ccc(OC)cc4)CC3)c(C#N)c2)cc1` [Compound 3241486] returned an EC50 in test [2] (setting [3]) of 9.08 µM.
Turning to `COc1ccc(-c2cc(C(=O)OCC(=O)Nc3ccc4c(c3)OCO4)c3ccccc3n2)cc1` [Compound 2338283], in test [2] (setting [3]), the “EC50 E320A” value is on record as “Infinite”.
`CC(=O)NC(=S)Nc1ccc(-c2nc3ccc(C)cc3s2)cc1` [Compound 1226649]: in test [2] (setting [3]), it took 8.47 µM to reach a half-maximal effect (EC50). This counts as single-digit micromolar.
The same measure, in the same setting: next, `Cc1cc(C=C2C(=O)CCCC2=O)c(C)n1-c1ccccc1` [Compound 2313216]: 28.3 µM; `Cc1ccc(/C=C2\SC(=S)N(CC(=O)Nc3ncc(Cc4ccccc4Cl)s3)C2=O)cc1` [Compound 1871747]: 15.4 µM.
In test [2] (setting [3]), `COc1ccc(C2=Nc3nc(-c4ccccc4)cn3C(c3ccc(OC)cc3)C2)cc1` (stereo not shown) [Compound 4325421] had an EC50 of 999 µM.
As for `CCC1CCCCN1S(=O)(=O)c1ccc(S(=O)(=O)N2CCN(S(=O)(=O)CC)CC2)cc1` (stereo not shown) [Compound 651007], in test [2] (setting [3]), the response was half-maximal at 8.18 µM (EC50).
In turn, `Cc1ccccc1-c1ccc(Nc2ccc(N3CCOCC3)cc2)nn1` [Compound 646977] registered an EC50 in test [2] (setting [3]) of 10.1 µM.
In test [2] (setting [3]), `CCOC(=O)C(Cc1ccccc1)C(=O)Nc1ccc(NC(=O)C(Cc2ccccc2)C(=O)OCC)cc1` (stereo not shown) [Compound 2836867] came in with an EC50 of 121 µM.
`COc1cc(NC(=O)c2noc3c2CCC3)c(OC)cc1Cl` [Compound 3238190] had an EC50 in test [2] (setting [3]) of 10.5 µM. Compared with the last molecule, the EC50 is about 12-fold lower.
`O=C(/C=C/c1ccc(Cl)cc1)NC(=S)Nc1ccc(N2CCOCC2)c(Cl)c1` [Compound 1345254] had an EC50 in test [2] (setting [3]) of 7.53 µM. The EC50 values of the last two molecules are within 1.5-fold of each other.
In the case of `O=C(NCCN1C(=O)S/C(=C\c2ccccc2)C1=O)c1cc(S(=O)(=O)N2CCOCC2)c(Cl)cc1Cl` [Compound 5774232], the half-maximal effective concentration (EC50) in test [2] (setting [3]) turned out to be 8.84 µM.
`Nc1c(C(=O)Nc2cccc(Cl)c2Cl)sc2nc(-c3cccnc3)ccc12` [Compound 1976060] showed an EC50 in test [2] (setting [3]) of 0.315 µM.
The same measure, in the same setting: next, `O=C(NCc1ccco1)c1c2c(nc3ccccc13)CCC2` [Compound 862194]: 15.2 µM.
As for `C=CCOC(=O)C(C#N)c1nc2ccccc2nc1N1CCN(Cc2ccc3c(c2)OCO3)CC1` (stereo not shown) [Compound 660507], the midpoint of the response in test [2] (setting [3]), the EC50, lay at 18.5 µM.
Take `Cc1ccc(-c2noc(C3CCCN(S(=O)(=O)c4ccc(S(=O)(=O)N(C)C)cc4)C3)n2)o1` (stereo not shown) [Compound 3226283]: the EC50 in test [2] (setting [3]) was found to be 6.69 µM.
Consider `Cc1oc(-c2ccc(F)cc2)cc1-c1nn2c(-c3ccoc3C)nnc2s1` [Compound 2145571], for which a half-maximal effect in test [2] (setting [3]) (EC50) was put at 12.1 µM.
Turning to `O=C(CSc1nnc2c3ccccc3c3ccccc3c2n1)Nc1ccccc1F` [Compound 6402388], a half-maximal response in test [2] (setting [3]) (EC50) required 11.2 µM.
With `O=C(N/N=C\c1ccc(-c2ccc([N+](=O)[O-])cc2)o1)c1ccc2c(c1)OCO2` [Compound 5497396], in test [2] (setting [3]), a half-maximal response (EC50) required 11.7 µM.
In test [2] (setting [3]), `O=C(Nc1nc(-c2ccncc2)cs1)c1ccco1` [Compound 2081288] yielded an EC50 of 12.7 µM.
On to `O=C1NC(=S)N(C2CC2)C(=O)/C1=C/c1ccc2c(c1)CCN2CCCCl` [Compound 1993471], for which the midpoint of the response in test [2] (setting [3]), the EC50, lay at 164 µM.
`O=C(/C=C/c1ccco1)c1ccc(NC(=O)C23CC4CC(CC(C4)C2)C3)cc1` [Compound 7424594] gave an EC50 in test [2] (setting [3]) of 10.3 µM.
The same measure, in the same setting: with `O=C1NC(=O)N(c2ccc(F)cc2)C(=O)/C1=C/c1ccc2c(c1)CCCN2Cc1ccccc1` [Compound 1997460] the figure was 6.23 µM.
